Measured values reported in ChEMBL document CHEMBL3885881, “DrugMatrix”.
Values joined by “and” are separate entries in the source; they are usually repeats but may differ in a detail not shown here. Identical values can stand only once.

Species: Rattus norvegicus
Experiment: DrugMatrix - Regimen: Daily Repeat
Format: toxicity, organism-based, Sprague-Dawley
Set-up: regimen Daily Repeat, gender Male, age 6-8 weeks
Settings: in vivo, po, route oral GAVAGE, vehicle .5 % CMC; for ABSOLUTE BASOPHIL / ABSOLUTE EOSINOPHIL / ABSOLUTE LYMPHOCYTE / ABSOLUTE MONOCYTE / BASOPHIL / EOSINOPHIL / ERYTHROCYTE COUNT / HEMATOCRIT / HEMOGLOBIN / LEUKOCYTE COUNT / LYMPHOCYTE / MEAN CORPUSCULAR HEMOGLOBIN / MEAN CORPUSCULAR HEMOGLOBIN CONCENTRATION / MEAN CORPUSCULAR VOLUME / MONOCYTE / NEUTROPHIL / PLATELET COUNT / ABSOLUTE SEGMENTED NEUTROPHIL / NUCLEATED RED BLOOD CELLS: tissue Blood; for ALANINE AMINOTRANSFERASE / ALBUMIN / ALKALINE PHOSPHATASE / ASPARTATE AMINOTRANSFERASE / BLOOD UREA NITROGEN / CARBON DIOXIDE / CHLORIDE / CHOLESTEROL / CREATINE PHOSPHOKINASE / CREATININE / GLUCOSE / LACTATE DEHYDROGENASE / LIPASE / PHOSPHORUS / POTASSIUM / SODIUM / TOTAL BILIRUBIN / TOTAL PROTEIN / URIC ACID: tissue Plasma
[1] = 0 mg/kg, 120 h, dose level Control, time 5 day
[2] = 0 mg/kg, […], dose level Control, time 14 day
[3] = 10 mg/kg, 72 h, dose level Low, time 3 day
[4] = 10 mg/kg, 120 h, dose level Low, time 5 day

Compound `CN(C)CCN(Cc1cccs1)c1ccccn1` has an ABSOLUTE BASOPHIL [1] of 150 cells/µL, an ABSOLUTE EOSINOPHIL [1] of 110 cells/µL and an ABSOLUTE LYMPHOCYTE [1] of 13400 cells/µL. For the same compound, the ABSOLUTE MONOCYTE [1] was 330 cells/µL, the BASOPHIL [1] was 0.78% and the EOSINOPHIL [1] was 0.62%. The “ERYTHROCYTE COUNT” value [1] was 7.12 x10E6/uL, the HEMATOCRIT [1] was 46.95% and the HEMOGLOBIN [1] was 14.55 G/DL. The “LEUKOCYTE COUNT” value [1] was 16.58 x10E3/uL, the LYMPHOCYTE [1] was 80.95% and the “MEAN CORPUSCULAR HEMOGLOBIN” value [1] was 20.45 pg. For the same compound, the “MEAN CORPUSCULAR HEMOGLOBIN CONCENTRATION” value [1] was 31.02 G/DL, the “MEAN CORPUSCULAR VOLUME” value [1] was 65.97 fL and the MONOCYTE [1] was 1.97%. The NEUTROPHIL [1] was 14.12%, the “PLATELET COUNT” value [1] was 1229.25 x10E3/uL and the “ALANINE AMINOTRANSFERASE” value [1] was 45 u/L. The ALBUMIN [1] was 3.8 G/DL, the “ALKALINE PHOSPHATASE” value [1] was 388 u/L and the “ASPARTATE AMINOTRANSFERASE” value [1] was 72.25 u/L. The “BLOOD UREA NITROGEN” value [1] was 15.75 mg/dL, the “CARBON DIOXIDE” value [1] was 37 mmol/L and the CHLORIDE [1] was 107 MEQ/L. The CHOLESTEROL [1] was 73 mg/dL, the “CREATINE PHOSPHOKINASE” value [1] was 525.5 u/L and the CREATININE [1] was 0.5 mg/dL. The GLUCOSE [1] was 179.5 mg/dL, the “LACTATE DEHYDROGENASE” value [1] was 216.25 u/L and the LIPASE [1] was 22.5 u/L. For the same compound, the PHOSPHORUS [1] was 11.97 mg/dL, the POTASSIUM [1] was 6.4 MEQ/L and the SODIUM [1] was 151.25 MEQ/L. For the same compound, the “TOTAL BILIRUBIN” value [1] was 0.3 mg/dL, the “TOTAL PROTEIN” value [1] was 6.55 G/DL and the “URIC ACID” value [1] was 1.35 mg/dL. For the same compound, the ABSOLUTE BASOPHIL [2] was 120 cells/µL, the ABSOLUTE EOSINOPHIL [2] was 40 cells/µL and the ABSOLUTE LYMPHOCYTE [2] was 10100 cells/µL. For the same compound, the ABSOLUTE MONOCYTE [2] was 190 cells/µL, the BASOPHIL [2] was 1.1% and the EOSINOPHIL [2] was 0.33%. For the same compound, the “ERYTHROCYTE COUNT” value [2] was 7.86 x10E6/uL, the HEMATOCRIT [2] was 48.5% and the HEMOGLOBIN [2] was 15.4 G/DL. For the same compound, the “LEUKOCYTE COUNT” value [2] was 11.73 x10E3/uL, the LYMPHOCYTE [2] was 85.92% and the “MEAN CORPUSCULAR HEMOGLOBIN” value [2] was 19.55 pg. For the same compound, the “MEAN CORPUSCULAR HEMOGLOBIN CONCENTRATION” value [2] was 31.72 G/DL, the “MEAN CORPUSCULAR VOLUME” value [2] was 61.67 fL and the MONOCYTE [2] was 1.6%. The NEUTROPHIL [2] was 10.2%, the “PLATELET COUNT” value [2] was 1212.75 x10E3/uL and the “ALANINE AMINOTRANSFERASE” value [2] was 47 u/L. For the same compound, the ALBUMIN [2] was 3.85 G/DL, the “ALKALINE PHOSPHATASE” value [2] was 356.5 u/L and the “ASPARTATE AMINOTRANSFERASE” value [2] was 87.75 u/L. For the same compound, the “BLOOD UREA NITROGEN” value [2] was 14.25 mg/dL, the “CARBON DIOXIDE” value [2] was 36.5 mmol/L and the CHLORIDE [2] was 106.5 MEQ/L. The CHOLESTEROL [2] was 63.25 mg/dL, the “CREATINE PHOSPHOKINASE” value [2] was 324.5 u/L and the CREATININE [2] was 0.65 mg/dL. For the same compound, the GLUCOSE [2] was 162.75 mg/dL, the “LACTATE DEHYDROGENASE” value [2] was 299 u/L and the LIPASE [2] was 16.75 u/L. For the same compound, the PHOSPHORUS [2] was 10.45 mg/dL, the POTASSIUM [2] was 6.6 MEQ/L and the SODIUM [2] was 152 MEQ/L. For the same compound, the “TOTAL BILIRUBIN” value [2] was 0.25 mg/dL, the “TOTAL PROTEIN” value [2] was 6.7 G/DL and the “URIC ACID” value [2] was 1.15 mg/dL. For the same compound, the “ABSOLUTE BASOPHIL” value [3] was 0 CELLS/uL, the “ABSOLUTE EOSINOPHIL” value [3] was 27 CELLS/uL and the “ABSOLUTE LYMPHOCYTE” value [3] was 9772.67 CELLS/uL. For the same compound, the “ABSOLUTE MONOCYTE” value [3] was 248.67 CELLS/uL, the “ABSOLUTE SEGMENTED NEUTROPHIL” value [3] was 751.67 CELLS/uL and the BASOPHIL [3] was 0%. For the same compound, the EOSINOPHIL [3] was 0.33%, the “ERYTHROCYTE COUNT” value [3] was 4.84 x10E6/uL and the HEMATOCRIT [3] was 31.57%. For the same compound, the HEMOGLOBIN [3] was 12.13 G/DL, the “LEUKOCYTE COUNT” value [3] was 10.8 x10E3/uL and the LYMPHOCYTE [3] was 90.33%. For the same compound, the “MEAN CORPUSCULAR HEMOGLOBIN” value [3] was 25.1 pg, the “MEAN CORPUSCULAR HEMOGLOBIN CONCENTRATION” value [3] was 38.43 G/DL and the “MEAN CORPUSCULAR VOLUME” value [3] was 65.27 fL. For the same compound, the MONOCYTE [3] was 2.33%, the NEUTROPHIL [3] was 7% and the “NUCLEATED RED BLOOD CELLS” value [3] was 0 /100WBC. The “PLATELET COUNT” value [3] was 1127 x10E3/uL, the “ALANINE AMINOTRANSFERASE” value [3] was 57.33 u/L and the ALBUMIN [3] was 3.9 G/DL. The “ALKALINE PHOSPHATASE” value [3] was 413.67 u/L, the “ASPARTATE AMINOTRANSFERASE” value [3] was 90.67 u/L and the “BLOOD UREA NITROGEN” value [3] was 16 mg/dL. The “CARBON DIOXIDE” value [3] was 30.33 mmol/L, the CHLORIDE [3] was 98.33 MEQ/L and the CHOLESTEROL [3] was 86 mg/dL. For the same compound, the “CREATINE PHOSPHOKINASE” value [3] was 368 u/L, the CREATININE [3] was 0.25 mg/dL and the GLUCOSE [3] was 147.33 mg/dL. The “LACTATE DEHYDROGENASE” value [3] was 103 u/L, the LIPASE [3] was 10.67 u/L and the PHOSPHORUS [3] was 10.53 mg/dL. For the same compound, the POTASSIUM [3] was 5.88 MEQ/L, the SODIUM [3] was 141.1 MEQ/L and the “TOTAL BILIRUBIN” value [3] was 0.23 mg/dL. For the same compound, the “TOTAL PROTEIN” value [3] was 6.23 G/DL, the “URIC ACID” value [3] was 0.43 mg/dL and the “ABSOLUTE SEGMENTED NEUTROPHIL” value [4] was 1373 CELLS/uL. For the same compound, the BASOPHIL [4] was 0.85% and 0%, the EOSINOPHIL [4] was 0.43% and 0.33% and the “ERYTHROCYTE COUNT” value [4] was 6.77 x10E6/uL and 5.32 x10E6/uL. For the same compound, the HEMATOCRIT [4] was 44.08% and 33.07%, the HEMOGLOBIN [4] was 13.62 G/DL and 12.93 G/DL and the “LEUKOCYTE COUNT” value [4] was 14.73 x10E3/uL and 11.23 x10E3/uL. For the same compound, the LYMPHOCYTE [4] was 80.67% and 87%, the “MEAN CORPUSCULAR HEMOGLOBIN” value [4] was 20.1 pg and 24.37 pg and the “MEAN CORPUSCULAR HEMOGLOBIN CONCENTRATION” value [4] was 30.93 G/DL and 39.13 G/DL. For the same compound, the “MEAN CORPUSCULAR VOLUME” value [4] was 65 fL and 62.23 fL, the MONOCYTE [4] was 2.75% and 0.33% and the NEUTROPHIL [4] was 13.88% and 12.33%. For the same compound, the “NUCLEATED RED BLOOD CELLS” value [4] was 0 /100WBC, the “PLATELET COUNT” value [4] was 1086.75 x10E3/uL and 1423 x10E3/uL and the “ALANINE AMINOTRANSFERASE” value [4] was 52.75 u/L and 43 u/L. The ALBUMIN [4] was 3.67 G/DL and 4 G/DL, the “ALKALINE PHOSPHATASE” value [4] was 395.75 u/L and 410 u/L and the “ASPARTATE AMINOTRANSFERASE” value [4] was 91 u/L and 82.67 u/L. For the same compound, the “BLOOD UREA NITROGEN” value [4] was 13.75 mg/dL and 14.67 mg/dL, the “CARBON DIOXIDE” value [4] was 36.75 mmol/L and 34.67 mmol/L and the CHLORIDE [4] was 105.75 MEQ/L and 99.33 MEQ/L. The CHOLESTEROL [4] was 84.75 mg/dL and 72 mg/dL, the “CREATINE PHOSPHOKINASE” value [4] was 591 u/L and 571.33 u/L and the CREATININE [4] was 0.4 mg/dL and 0.23 mg/dL. For the same compound, the GLUCOSE [4] was 181.5 mg/dL and 137.33 mg/dL, the “LACTATE DEHYDROGENASE” value [4] was 125.75 u/L and 163.67 u/L and the LIPASE [4] was 18.5 u/L and 7.33 u/L. For the same compound, the PHOSPHORUS [4] was 11.68 mg/dL and 12.63 mg/dL, the POTASSIUM [4] was 6.62 MEQ/L and 6.41 MEQ/L and the SODIUM [4] was 151 MEQ/L and 143.33 MEQ/L. The “TOTAL BILIRUBIN” value [4] was 0.28 mg/dL and 0.13 mg/dL, the “TOTAL PROTEIN” value [4] was 6.15 G/DL and 6.1 G/DL and the “URIC ACID” value [4] was 1.28 mg/dL and 0.87 mg/dL.
